Molecules are shown by their SMILES. Structures can show the parent of a compound that is named as a salt.

Test [1] concerns the target T1, proMMP9(20-445;ΔFnII) (SEQ ID NO:6) (Homo sapiens, UniProt P14780, DEL216-390).
T1 construct: start methionine (N); made in house; host or cells: E. coli BL21(DE3) RIL
T1 sequence (P14780 with tags, fused parts or gaps DEL216-390): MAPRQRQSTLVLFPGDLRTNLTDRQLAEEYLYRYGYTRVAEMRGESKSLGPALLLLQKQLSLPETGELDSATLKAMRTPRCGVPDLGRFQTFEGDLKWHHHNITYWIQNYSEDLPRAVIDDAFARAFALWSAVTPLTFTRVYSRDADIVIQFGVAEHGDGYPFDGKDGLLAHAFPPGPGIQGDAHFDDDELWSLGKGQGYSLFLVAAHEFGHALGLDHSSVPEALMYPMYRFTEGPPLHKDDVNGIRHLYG
As to the kind of experiment: ThermoFluor binding assay with proMMP9(20-445;ΔFnII). The method in brief: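 Protein thermal stability was measured with 2.8 μM proMMP9(20-445;ΔFnII) and 50 μM 1,8-ANS in 50 mM HEPES pH 7.0, 100 mM NaCl, 0.001% Tween-20, 2.5 mM MgCl2, 300 μM CaCl2, across serial compound dilutions. Samples were heated 40–90° C at 1° C/min with fluorescence read at 500 nm. Tm was fitted, and binding was derived from thermodynamic parameters obtained by DSC and ThermoFluor.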
On the technique in general: In DSF a fluorescence change marks the thermal transition of the protein.

For test [2], the target named is T2, proMMP9(67-444;ΔFnII) (SEQ ID NO:5) (Homo sapiens, UniProt P14780, DEL216-390).
T2 construct: start methionine (N); made in house; host or cells: E. coli BL21(DE3) RIL
T2 sequence (P14780 with tags, fused parts or gaps DEL216-390): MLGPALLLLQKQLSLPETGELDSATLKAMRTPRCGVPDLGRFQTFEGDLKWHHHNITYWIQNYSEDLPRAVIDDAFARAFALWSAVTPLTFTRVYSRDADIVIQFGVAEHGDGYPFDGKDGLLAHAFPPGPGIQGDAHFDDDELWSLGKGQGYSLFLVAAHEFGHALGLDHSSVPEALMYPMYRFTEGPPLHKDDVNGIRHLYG
As to the kind of experiment: ThermoFluor binding assay with proMMP9(67-444;ΔFnII). The method in brief: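 Thermal shift of 3.5 μM proMMP9(67-444;ΔFnII), desalted beforehand, with 50 μM 1,8-ANS in 50 mM HEPES pH 7.0, 100 mM NaCl, 2.5 mM MgCl2, 300 μM CaCl2, 0.001% Tween-20. Heated 40–90 °C at 1 °C/min, fluorescence read at 500 nm; binding fitted from Tm shifts using DSC- and ThermoFluor-derived unfolding parameters.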

The target of test [3] is T3, full-length proMMP9(1-707) activation by catalytic MMP3 (Homo sapiens, UniProt P14780, R574P).
T3 construct: made in house; host or cells: proMMP9: HEK293 (secreted); MMP3: E. coli
T3 sequence (P14780 20-707 R574P): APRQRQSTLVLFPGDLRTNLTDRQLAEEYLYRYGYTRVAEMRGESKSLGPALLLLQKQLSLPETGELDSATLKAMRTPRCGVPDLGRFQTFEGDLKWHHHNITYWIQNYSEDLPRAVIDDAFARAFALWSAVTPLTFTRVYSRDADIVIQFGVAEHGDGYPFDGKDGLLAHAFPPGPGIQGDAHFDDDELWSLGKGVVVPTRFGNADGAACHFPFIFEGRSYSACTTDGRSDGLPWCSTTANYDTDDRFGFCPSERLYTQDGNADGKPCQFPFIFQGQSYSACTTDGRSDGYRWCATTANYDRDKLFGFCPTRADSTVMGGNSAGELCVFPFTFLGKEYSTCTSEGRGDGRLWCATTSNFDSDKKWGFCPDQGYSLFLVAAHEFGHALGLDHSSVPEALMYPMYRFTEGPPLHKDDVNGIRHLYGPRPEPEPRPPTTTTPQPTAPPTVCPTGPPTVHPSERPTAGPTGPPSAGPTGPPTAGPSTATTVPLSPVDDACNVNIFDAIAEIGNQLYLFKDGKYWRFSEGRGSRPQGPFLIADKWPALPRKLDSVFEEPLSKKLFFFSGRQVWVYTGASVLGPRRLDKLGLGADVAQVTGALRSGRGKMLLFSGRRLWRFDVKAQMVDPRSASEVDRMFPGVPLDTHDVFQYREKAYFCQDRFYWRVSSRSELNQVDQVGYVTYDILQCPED
In words: proMMP9/MMP3 P126 Activation Assay. Type of test: biochemical. On the procedure: proMMP9/MMP3 P126 Activation Assay
The reaction volume was 50 μL. […] Reactivity of residual MMP3 towards P-126 substrate was minimal under these conditions.

The Kd is the concentration at which binding is half-saturated. One may read the IC50 as the concentration needed to halve the response being measured. Lower therefore signals inhibition by little substance. Turning to `CCn1cc2c(ccc3sc(Nc4cc(S(C)(=O)=O)ccc4OC)nc32)n1` [Example 107, (7-Ethyl-7H-3-thia-1,6,7-triaza-as-indacen-2-yl)-(5-methanesulfonyl-2-methoxy-phenyl)-amine.TFA], the Kd was 6800 nM in test [1] and 1500 nM in test [2]. For the same compound, it took 580 nM to reach half-maximal inhibition in test [3] (IC50).
The like results for `CCn1c(C)nc2ccc3sc(Nc4cc(S(N)(=O)=O)ccc4OC(F)(F)F)nc3c21` [Example 122, 3-(8-Ethyl-7-methyl-8H-imidazo[4′,5′:3,4]benzo[2,1-d]thiazol-2-ylamino)-4-trifluoromethoxy-benzenesulfonamide.TFA] were, in that order, 1200 nM, 340 nM and 650 nM.
In the same order, the values of `COc1ccc(S(N)(=O)=O)cc1Nc1nc2c(ccc3nc(C)n(C)c32)s1` [Example 123, 3-(7,8-Dimethyl-8H-imidazo[4′,5′:3,4]-benzo[2,1-d]thiazol-2-ylamino)-4-methoxy-benzenesulfonamide.TFA] are 5300 nM, 4700 nM and 810 nM.
Consider `COc1ccc(S(C)(=O)=O)cc1Nc1nc2c(ccc3nc(C)n(C)c32)s1` [Example 134, (7,8-Dimethyl-8H-imidazo[4′,5′:3,4]benzo[2,1-d]thiazol-2-yl)-(5-methanesulfonyl-2-methoxy-phenyl)-amine.TFA], for which the dissociation constant (Kd) in test [1] amounted to 1600 nM; in test [2], 900 nM. Moreover, the IC50 in test [3] was determined as 260 nM.
With `CCn1c(C)nc2ccc3sc(Nc4cc(S(C)(=O)=O)ccc4OC(C)C)nc3c21` [Example 143, (8-Ethyl-7-methyl-8H-imidazo[4′,5′:3,4]benzo[2,1-d]thiazol-2-yl)-(2-isopropoxy-5-methanesulfonyl-phenyl)-amine.TFA], the figures for the dissociation constant Kd in test [1] and in test [2] were 1200 nM and 260 nM, respectively. In addition, the IC50 in test [3] came out at 160 nM.
With `Cc1[nH]c2c(ccc3sc(Nc4cc(C(N)=O)ccc4OC(C)C)nc32)c1C` [Example 45, 3-(6,7-Dimethyl-8H-3-thia-1,8-diaza-as-indacen-2-ylamino)-4-isopropoxy-benzamide.HCl], the Kd in test [1] amounted to 780 nM; in test [2], 3300 nM. In test [3], this compound showed an IC50 of 3900 nM.
`COc1ccccc1Nc1nc2c(ccc3c2ncn3C)s1` [Example 46, (2-Methoxy-phenyl)-(6-methyl-6H-imidazo[4′,5′:3,4]benzo[2,1-d]thiazol-2-yl)-amine.HCl]: the dissociation constant (Kd) in test [1] turned out to be 640 nM; in test [2], 240 nM. In addition, in test [3], 150 nM corresponded to half-maximal inhibition (IC50).
As to `COc1ccccc1Nc1nc2c(ccc3nc(C)n(C)c32)s1` [Example 124, (7,8-Dimethyl-8H-imidazo[4′,5′:3,4]benzo[2,1-d]thiazol-2-yl)-(2-methoxy-phenyl)-amine.TFA], the dissociation constant Kd in test [1] was found to be 5700 nM; in test [2], 2800 nM. This compound showed a 50% inhibitory concentration (IC50) in test [3] of 470 nM.
In the same order, the values of `COc1ccc(F)cc1Nc1nc2c(ccc3nc(C)n(C)c32)s1` [Example 125, (7,8-Dimethyl-8H-imidazo[4′,5′:3,4]benzo[2,1-d]thiazol-2-yl)-(5-fluoro-2-methoxy-phenyl)-amine.TFA] are 3100 nM, 600 nM and 260 nM.
The like results for `Cc1nc2c3nc(Nc4cnccc4OC(C)C)sc3ccc2n1C` [Example 158, N-(4-Isopropoxypyridin-3-yl)-6,7-dimethyl-6H-imidazo[4′,5′:5,6]benzo[1,2-d]thiazol-2-amine.HCl] were, in that order, 260 nM, 14 nM and 64 nM.
For `CC(C)Oc1ccc(S(C)(=O)=O)cc1Nc1nc2c(ccc3c2ncn3C)s1` [Example 147, (2-Isopropoxy-5-methanesulfonyl-phenyl)-(6-methyl-6H-imidazo[4′,5′:3,4]benzo[2,1-d]thiazol-2-yl)-amine.TFA], the Kd in test [1] was determined as 1400 nM; in test [2] it was 400 nM. This compound also displayed an IC50 in test [3] of 220 nM.
`COc1ccc(S(C)(=O)=O)cc1Nc1nc2c(ccc3cnn(C)c32)s1` [Example 150, (5-Methanesulfonyl-2-methoxy-phenyl)-(1-methyl-1H-6-thia-1,2,8-triaza-as-indacen-7-yl)-amine.TFA]: the Kd in test [1] was found to be 8800 nM; in test [2] it was 1200 nM. Also, the midpoint of inhibition in test [3], the IC50, lay at 340 nM.
In the same order, the values of `Cn1cnc2c3nc(Nc4cc(S(N)(=O)=O)ccc4OC(F)(F)F)sc3ccc21` [Example 64, 3-(6-Methyl-6H-imidazo[4′,5′:3,4]benzo[2,1-d]thiazol-2-ylamino)-4-trifluoromethoxy-benzenesulfonamide.HCl] are 970 nM, 900 nM and 150 nM.
In the same order, the values of `COc1ccc(C(N)=O)cc1Nc1nc2c(ccc3cnccc32)s1` [Example 96, 4-Methoxy-3-(thiazolo[4,5-f]isoquinolin-2-ylamino)-benzamide.TFA] are 730 nM, 440 nM and 730 nM.
In the same order, the values of `COc1ccc(C(F)(F)F)cc1Nc1nc2c(ccc3c2ncn3C)s1` [Example 50, (2-Methoxy-5-trifluoromethyl-phenyl)-(6-methyl-6H-imidazo[4′,5′: 3,4]benzo[2,1-d]thiazol-2-yl)-amine.HCl] are 3000 nM, 1500 nM and 1100 nM.
Take `Cc1nc2ccc3sc(Nc4cc(S(N)(=O)=O)ccc4OC(C)C)nc3c2n1C` [Example 119, 3-(7,8-Dimethyl-8H-imidazo[4′,5′:3,4]-benzo[2,1-d]thiazol-2-ylamino)-4-isopropoxy-benzenesulfonamide.TFA]: the Kd in test [1] came to 910 nM; in test [2] it was 1200 nM. This compound also registered a half-inhibitory concentration (IC50) in test [3] of 500 nM.
The like results for `Cc1nc2ccc3sc(Nc4cc(S(C)(=O)=O)ccc4OC(C)C)nc3c2n1CC(F)(F)F` [Example 145, (2-Isopropoxy-5-methanesulfonyl-phenyl)-[7-methyl-8-(2,2,2-trifluoro-ethyl)-8H-imidazo[4′,5′:3,4]benzo[2,1-d]thiazol-2-yl]-amine.TFA] were, in that order, 2500 nM, 560 nM and 390 nM.
For `COc1ccncc1Nc1nc2c(ccc3nc(C)n(CC(F)(F)F)c32)s1` [Example 148, (4-Methoxy-pyridin-3-yl)-[7-methyl-8-(2,2,2-trifluoro-ethyl)-8H-imidazo[4′,5′:3,4]benzo[2,1-d]thiazol-2-yl]-amine.TFA], the dissociation constant (Kd) in test [1] amounted to 860 nM; in test [2] it was 290 nM. This compound also had a 50% inhibitory concentration (IC50) in test [3] of 220 nM.
The like results for `Cc1nc2ccc3sc(Nc4cc(S(C)(=O)=O)ccc4OC(C)C)nc3c2n1C` [Example 144, (7,8-Dimethyl-8H-imidazo[4′,5′:3,4]benzo[2,1-d]thiazol-2-yl)-(2-isopropoxy-5-methanesulfonyl-phenyl)-amine.TFA] were, in that order, 880 nM, 660 nM and 260 nM.
`COc1ccc(S(C)(=O)=O)cc1Nc1nc2c(ccc3c2cnn3CC(C)C)s1` [Example 108, (6-Isobutyl-6H-3-thia-1,6,7-triaza-as-indacen-2-yl)-(5-methanesulfonyl-2-methoxy-phenyl)-amine.TFA]: the results for the Kd in test [1] and in test [2] were greater than 95000 nM and 1400 nM, respectively. For the same compound, half-maximal inhibition in test [3] (IC50) was put at 650 nM.
The like results for `CCn1c(C)nc2ccc3sc(Nc4ccccc4OC)nc3c21` [Example 120, (8-Ethyl-7-methyl-8H-imidazo[4′,5′:3,4]benzo[2,1-d]thiazol-2-yl)-(2-methoxy-phenyl)-amine.TFA] were, in that order, 3400 nM, 2600 nM and 480 nM.
In the case of `COc1ccccc1Nc1nc2c(ccc3c2cnn3C)s1` [Example 94, (2-Methoxy-phenyl)-(6-methyl-6H-3-thia-1,6,7-triaza-as-indacen-2-yl)-amine.TFA], the results for the equilibrium dissociation constant (Kd) in test [1] and in test [2] were 15000 nM and 9200 nM, respectively. For the same compound, in test [3], the IC50 amounted to 510 nM.
The like results for `Cn1cnc2c3nc(Nc4cc(C#N)ccc4OC(F)(F)F)sc3ccc21` [Example 164] were, in that order, 360 nM, 110 nM and 180 nM.
In the same order, the values of `Cn1cnc2c3nc(Nc4ccc(C#N)cc4OC(F)(F)F)sc3ccc21` [Example 86, 4-(6-Methyl-6H-imidazo[4′,5′:3,4]benzo[2,1-d]thiazol-2-ylamino)-3-trifluoromethoxy-benzonitrile.HCl] are greater than 95000 nM, 680 nM and 650 nM.

The values are drawn from patent publication US20120129811A1, “TRICYCLIC INHIBITORS OF PRO-MATRIX METALLOPROTEINASE ACTIVATION” (priority 2010, published 2012).
